pIC50: −log10 of the molar value. “And” between values parts separate entries of the source, which are not always exact repeats. Identical values can stand only once. Like-named read-outs stand apart in the source and are kept apart here.
Assays:
[1] = system: HEC265; assay: 4 day proliferation assay (CellTiter-Glo); conditions: Homo sapiens, 96 h, read-out: 4 day assay GI50
[2] = system: SNU1; assay: CFA 10-14 day clonogenic assay; assay type: cell-based; conditions: Homo sapiens
[3] = system: CYP (all isoforms tested); assay: CYP inhibition; assay type: in vitro ADME
[4] = system: KM12; assay: 4 day proliferation assay (CellTiter-Glo); conditions: Homo sapiens, KM12, 96 h, read-out: 4 day assay GI50
[5] = system: TGBC11TKB; assay: 4 day proliferation assay (CellTiter-Glo); conditions: Homo sapiens, 96 h, read-out: 4 day assay GI50
[6] = HRO761 blood PK in SW48 tumour-bearing mice; assay type: in vivo, mouse; conditions: for concentration at 4 h / concentration at 8 h / concentration at 0.5 h / concentration at 1 h / concentration at 2 h / concentration at 24 h / AUC: female, whole blood; for concentration at 4 h / concentration at 8 h / concentration at 0.5 h / concentration at 1 h / concentration at 2 h / concentration at 24 h: Free HRO761 blood concentration
Protocol: (§1) All animal studies were conducted in accordance with ethics and procedures covered by permit BS-2275 and BS-1975 issued by the Kantonales Veterinäramt Basel-Stadt and in strict adherence to guidelines of the Eidgenössisches Tierschutzgesetz and the Eidgenössische Tierschutzverordnung, Switzerland. All animal studies were approved by the internal ethics committee. All animals had access to food and water ad libitum and were identified with transponders. They were housed in a specific-pathogen-free facility in IVC racks under a 12 h–12 h light–dark cycle. To establish cell-line-derived xenograft models, 6–7-week-old female athymic nude (Crl:NU(NCr)-Foxn1^nu) or SCID-BEIGE (CB17.Cg-PrkdcscidLystbg-J/Crl) mice from Charles River were engrafted subcutaneously with 5 million tumour cells in HBSS (H6648, Sigma-Aldrich). For SNU-407, Lovo, IM95, RL95.2, Ishikawa and IGROV-1, the cells were concentrated in 50% Matrigel (354234, Corning). Patient-derived xenografts were induced and expanded by transplantation as previously described. […] For the efficacy experiment, mice were randomized into groups (n = 5–6) for a mean tumour size of 100–150 mm^3. […] Blood samples were collected on day 7 and 91. […] Tumour responses are reported with the measures of tumour volumes from the treatment start. […] Animals were randomized (n = 3) and tumour samples were collected at 0, 1, 4, 8 and 24 h on the first day and then collected 4 h after the last treatment on day 3, 8, 10, 14 (including a 24 h timepoint), 17 and 21. Tumours were excised, weighed, either frozen in liquid nitrogen and cryogenic dry pulverized with the CryoPrep system (model CP-02, Covaris) or processed to FFPE after fixation. […] On day 12, blood samples were collected for PK analysis. On the last day (3 h after the last treatment), tumours were excised, weighed, frozen in liquid nitrogen and cryogenic dry pulverized for PD analysis.
PK parameters were determined by non-compartmental analysis. Intravenous bolus studies in mouse, rat and dog were performed at 1, 1 and 0.1 mg per kg respectively (Extended Data Table 1).

[7] = system: IM95; assay: 4 day proliferation assay (CellTiter-Glo); conditions: Homo sapiens, IM95, 96 h, read-out: 4 day assay GI50
[8] = system: SNUC2A; assay: 4 day proliferation assay (CellTiter-Glo)
[9] = system: SNUC5; assay: 4 day proliferation assay (CellTiter-Glo); conditions: Homo sapiens, 96 h, read-out: 4 day assay GI50
[10] = system: HEC1A; assay: CFA 10-14 day clonogenic assay; assay type: cell-based; conditions: Homo sapiens, HEC-1-A
[11] = system: OC314; assay: CFA 10-14 day clonogenic assay; assay type: cell-based; conditions: Homo sapiens, OC-314
[12] = system: MSI CDX and PDX models; assay: In vivo screen in a panel of CDX and PDX models; set-up: species or system mouse; conditions: 60 or 120 mg per kg once daily
Protocol: as §1

[13] = system: HEC59; assay: CFA 10-14 day clonogenic assay; assay type: cell-based; conditions: Homo sapiens
[14] = system: DLD-1 (HCT15); assay: CFA 10-14 day clonogenic assay; assay type: cell-based; conditions: Homo sapiens
[15] = system: CL34; assay: 4 day proliferation assay (CellTiter-Glo); conditions: Homo sapiens, 96 h, read-out: 4 day assay GI50
[16] = system: SNUC2A; assay: CFA 10-14 day clonogenic assay; assay type: cell-based; conditions: Homo sapiens

CCc1c(N2CCN(C(=O)c3ncnc(C)c3O)CC2)c(=O)n2nc(C3=CCOCC3)nc2n1CC(=O)Nc1ccc(C(F)(F)F)cc1Cl [HRO761]
GI50 [1]: ≥ 10000 nM
GI50 [2]: ≥ 10000 nM
pIC50 [3]: < 4.60
GI50 [4]: 1380 nM
GI50 [5]: 178 nM
Free HRO761 blood concentration ([6]; 20mg/kg po, qd, 0.5 h post treatment, single mouse): 1.505 µM and 0.703 µM and 1.278 µM
Free HRO761 blood concentration ([6]; 20mg/kg po, qd, 1 h, single mouse): 0.984 µM and 0.274 µM and 0.743 µM
Free HRO761 blood concentration ([6]; 20mg/kg po, qd, 2 h, single mouse): 0.245 µM and 0.085 µM and 0.166 µM
Free HRO761 blood concentration ([6]; 20mg/kg po, qd, 4 h, single mouse): 0.104 µM and 0.131 µM
Free HRO761 blood concentration ([6]; 20mg/kg po, qd, 8 h, single mouse): 0.145 µM and 0.122 µM
Free HRO761 blood concentration ([6]; 20mg/kg po, qd, 24 h, single mouse): 0.008 µM and 0.006 µM and 0.002 µM
Free HRO761 blood concentration ([6]; 40mg/kg, 0.5 h, single mouse): 3.970 µM and 2.544 µM
Free HRO761 blood concentration ([6]; 40mg/kg, 1 h, single mouse): 2.426 µM and 1.276 µM
Free HRO761 blood concentration ([6]; 40mg/kg, 2 h, single mouse): 0.355 µM and 0.442 µM and 0.166 µM
Free HRO761 blood concentration ([6]; 40mg/kg, 4 h, single mouse): 0.164 µM and 0.089 µM
Free HRO761 blood concentration ([6]; 40mg/kg, 8 h, single mouse): 0.251 µM and 0.168 µM
Free HRO761 blood concentration ([6]; 40mg/kg, 24 h, single mouse): 0.004 µM and 0.015 µM and 0.019 µM
Free HRO761 blood concentration ([6]; 60mg/kg, 0.5 h, single mouse): 5.178 µM and 5.802 µM and 12.609 µM
Free HRO761 blood concentration ([6]; 60mg/kg, 1 h, single mouse): 2.372 µM and 2.688 µM and 8.368 µM
Free HRO761 blood concentration ([6]; 60mg/kg, 2 h, single mouse): 0.484 µM and 0.423 µM and 1.801 µM
Free HRO761 blood concentration ([6]; 60mg/kg, 4 h, single mouse): 0.455 µM and 0.299 µM and 0.197 µM
Free HRO761 blood concentration ([6]; 60mg/kg, 8 h, single mouse): 0.237 µM and 0.241 µM
Free HRO761 blood concentration ([6]; 60mg/kg, 24 h, single mouse): 0.050 µM and 0.025 µM and 0.021 µM
Free HRO761 blood concentration ([6]; 120mg/kg, 0.5 h, single mouse): 17.511 µM and 15.342 µM
Free HRO761 blood concentration ([6]; 120mg/kg, 1 h, single mouse): 10.912 µM and 17.320 µM
Free HRO761 blood concentration ([6]; 120mg/kg, 2 h, single mouse): 3.175 µM and 5.721 µM
Free HRO761 blood concentration ([6]; 120mg/kg, 4 h, single mouse): 0.693 µM and 0.631 µM
Free HRO761 blood concentration ([6]; 120mg/kg, 8 h, single mouse): 0.515 µM and 0.718 µM
Free HRO761 blood concentration ([6]; 120mg/kg, 24 h, single mouse): 0.210 µM and 0.035 µM and 0.095 µM
concentration at 4 h ([6]; mouse, oral, 20 mg/kg, 20mg/kg po, qd, 4 h, single mouse): 176 nM
concentration at 8 h ([6]; mouse, oral, 20 mg/kg, 20mg/kg po, qd, 8 h, single mouse): 154 nM
concentration at 0.5 h ([6]; mouse, oral, 20 mg/kg, Mean, 20mg/kg po, qd, 0.5 h): 1160 nM
concentration at 1 h ([6]; mouse, oral, 20 mg/kg, Mean, 20mg/kg po, qd, 1 h): 670 nM
concentration at 2 h ([6]; mouse, oral, 20 mg/kg, Mean, 20mg/kg po, qd, 2 h): 170 nM
concentration at 4 h ([6]; mouse, oral, 20 mg/kg, Mean, 20mg/kg po, qd, 4 h): 140 nM
concentration at 8 h ([6]; mouse, oral, 20 mg/kg, Mean, 20mg/kg po, qd, 8 h): 140 nM
concentration at 24 h ([6]; mouse, oral, 20 mg/kg, Mean, 20mg/kg po, qd, 24 h): 5.15 nM
concentration at 0.5 h ([6]; mouse, oral, 40 mg/kg, Mean, 0.5 h): 3140 nM
concentration at 1 h ([6]; mouse, oral, 40 mg/kg, Mean, 1 h): 1860 nM
concentration at 2 h ([6]; mouse, oral, 40 mg/kg, Mean, 2 h): 320 nM
concentration at 4 h ([6]; mouse, oral, 40 mg/kg, Mean, 4 h): 130 nM
concentration at 8 h ([6]; mouse, oral, 40 mg/kg, Mean, 8 h): 200 nM
concentration at 24 h ([6]; mouse, oral, 40 mg/kg, Mean, 24 h): 12.9 nM
concentration at 0.5 h ([6]; mouse, oral, 40 mg/kg, 0.5 h, single mouse): 2910 nM
concentration at 1 h ([6]; mouse, oral, 40 mg/kg, 1 h, single mouse): 1890 nM
concentration at 4 h ([6]; mouse, oral, 40 mg/kg, 4 h, single mouse): 124 nM
concentration at 8 h ([6]; mouse, oral, 40 mg/kg, 8 h, single mouse): 178 nM
concentration at 0.5 h ([6]; mouse, oral, 60 mg/kg, Mean, 0.5 h): 7860 nM
concentration at 1 h ([6]; mouse, oral, 60 mg/kg, Mean, 1 h): 4480 nM
concentration at 2 h ([6]; mouse, oral, 60 mg/kg, Mean, 2 h): 900 nM
concentration at 4 h ([6]; mouse, oral, 60 mg/kg, Mean, 4 h): 320 nM
concentration at 8 h ([6]; mouse, oral, 60 mg/kg, Mean, 8 h): 250 nM
concentration at 24 h ([6]; mouse, oral, 60 mg/kg, Mean, 24 h): 32.2 nM
concentration at 8 h ([6]; mouse, oral, 60 mg/kg, 8 h, single mouse): 276 nM
concentration at 0.5 h ([6]; mouse, oral, 120 mg/kg, Mean, 0.5 h): 15900 nM
concentration at 1 h ([6]; mouse, oral, 120 mg/kg, Mean, 1 h): 13900 nM
concentration at 2 h ([6]; mouse, oral, 120 mg/kg, Mean, 2 h): 4010 nM
concentration at 4 h ([6]; mouse, oral, 120 mg/kg, Mean, 4 h): 610 nM
concentration at 8 h ([6]; mouse, oral, 120 mg/kg, Mean, 8 h): 620 nM
concentration at 24 h ([6]; mouse, oral, 120 mg/kg, Mean, 24 h): 110 nM
concentration at 0.5 h ([6]; mouse, oral, 120 mg/kg, 0.5 h, single mouse): 14800 nM
concentration at 1 h ([6]; mouse, oral, 120 mg/kg, 1 h, single mouse): 13500 nM
concentration at 2 h ([6]; mouse, oral, 120 mg/kg, 2 h, single mouse): 3120 nM
concentration at 4 h ([6]; mouse, oral, 120 mg/kg, 4 h, single mouse): 496 nM
concentration at 8 h ([6]; mouse, oral, 120 mg/kg, 8 h, single mouse): 620 nM
AUC ([6]; mouse, po, 10 mg/kg, read-out: AUCb, u above GI90, u): 0.09 µM·h
AUC ([6]; mouse, po, 20 mg/kg, read-out: AUCb, u above GI90, u): 0.52 µM·h
AUC ([6]; mouse, po, 30 mg/kg, read-out: AUCb, u above GI90, u): 2.14 µM·h
AUC ([6]; mouse, po, 40 mg/kg, read-out: AUCb, u above GI90, u): 4 µM·h
AUC ([6]; mouse, po, 60 mg/kg, read-out: AUCb, u above GI90, u): 6.08 µM·h
AUC ([6]; mouse, po, 120 mg/kg, read-out: AUCb, u above GI90, u): 27 µM·h
AUC ([6]; oral, mouse at 40 mg/kg qd, read-out: Efficacious daily AUC): 31 µM·h
GI50 [7]: 2010 nM
GI50 ([8]; Homo sapiens, 96 h, read-out: 4 day assay GI50, SNUC2A): 641 nM
GI50 ([8]; read-out: 4 day assay GI50, SNUC2A): 542 nM
GI50 [9]: 7240 nM
GI50 [10]: ≥ 10000 nM
GI50 [11]: 4630 nM
complete responses [12]: 9%
disease control rate [12]: approximately 70%
partial responses [12]: 30%
stable diseases [12]: 35%
GI50 [13]: 133 nM
GI50 [14]: ≥ 10000 nM
GI50 [15]: 231 nM
GI50 [16]: 25 nM

Reference: paper PMC11078746 (Nature, 2024)
